Source: patent US20230322805A1, “NOVEL PYRIMIDODIAZEPINE DERIVATIVES OR USES THEREOF” (SPARK BIOPHARMA, INC., priority 2020, published 2023)

What was measured:
DNAJC3 = molecular target: T1, DNAJC3 (Homo sapiens, UniProt Q13217); experiment: Surface plasmon resonance assay; format: binding; conditions: various concentrations, PBS pH 7.3, 25° C.
T1 sequence (Q13217 32-504): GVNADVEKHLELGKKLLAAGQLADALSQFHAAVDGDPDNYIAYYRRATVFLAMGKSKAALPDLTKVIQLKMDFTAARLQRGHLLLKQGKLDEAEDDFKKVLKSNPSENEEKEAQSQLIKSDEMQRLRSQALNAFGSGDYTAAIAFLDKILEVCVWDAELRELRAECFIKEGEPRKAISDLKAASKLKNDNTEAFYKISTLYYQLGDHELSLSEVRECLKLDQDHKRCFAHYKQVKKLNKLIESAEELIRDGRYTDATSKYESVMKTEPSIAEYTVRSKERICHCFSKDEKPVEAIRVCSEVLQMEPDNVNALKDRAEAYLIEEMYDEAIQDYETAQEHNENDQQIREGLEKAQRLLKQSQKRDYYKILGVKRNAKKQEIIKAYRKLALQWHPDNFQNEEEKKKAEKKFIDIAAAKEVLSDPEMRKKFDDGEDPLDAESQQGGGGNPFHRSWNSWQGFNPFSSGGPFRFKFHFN
Protocol: (§1) Surface plasmon resonance (SPR) assays were performed using a Biacore T100 instrument (GE Healthcare). The recombinant PDIA3 or DNAJC3 protein was immobilized on the CM5 sensor chip (GE Healthcare) through an amide bond by activating the carboxy group on the CM5 sensor chip with a 1:1 mixture of N-ethyl-N′-(3-dimethylaminopropyl)-carbodiimide and N-hydroxysuccinimide. Protein immobilization reactions were performed in PBS containing 0.005% Tween 20 at pH 4.7 and pH 5.0 for PDIA3 and DNAJC3, respectively. Binding between compounds and proteins was monitored by injecting compounds at various concentrations into PBS (pH 7.3) containing 3% DMSO and 0.005% Tween 20 at 25° C. Data were analyzed to calculate kinetic parameters by fitting sensor grams with a 1:1 binding model using Biacore T100 evaluation software (GE Healthcare).
(§2) Additionally, it was confirmed whether SB1617 directly binds to PDIA3 and DNAJC3 through surface plasmon resonance (SPR) of Examples 1-11.

PDIA3 [1] = molecular target: T2, PDIA3 (Homo sapiens, UniProt P30101); experiment: Surface plasmon resonance assay; format: binding; conditions: various concentrations, PBS pH 7.3, 25° C.
T2 sequence (P30101 25-505): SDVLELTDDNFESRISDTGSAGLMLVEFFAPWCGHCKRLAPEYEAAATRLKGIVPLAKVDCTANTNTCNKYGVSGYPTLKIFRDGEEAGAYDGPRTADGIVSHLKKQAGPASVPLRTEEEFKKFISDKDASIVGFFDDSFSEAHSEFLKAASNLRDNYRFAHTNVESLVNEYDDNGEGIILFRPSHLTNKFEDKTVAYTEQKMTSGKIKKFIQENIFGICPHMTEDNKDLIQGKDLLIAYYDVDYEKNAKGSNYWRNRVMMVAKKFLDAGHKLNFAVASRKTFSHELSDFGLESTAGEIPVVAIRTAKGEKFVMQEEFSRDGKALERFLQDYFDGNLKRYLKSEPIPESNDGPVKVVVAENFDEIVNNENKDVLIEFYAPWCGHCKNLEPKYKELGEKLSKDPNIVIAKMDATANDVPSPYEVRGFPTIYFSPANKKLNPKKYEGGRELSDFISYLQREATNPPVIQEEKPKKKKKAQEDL
Protocol: as §1, §2

[2] = test system: acute Alzheimer's mouse model; experiment: Acute Alzheimer's mouse model (acquisition and probe test); format: in vivo
Protocol: 7-1. Potential therapeutic effect of SB1617 in an acute Alzheimer's mouse model was identified, and the design for the experiment is schematically shown in FIG. 40
7-3. As a result of confirming the treatment efficacy through a probe test, after removing the platform, it was performed by recording how many times the mouse passed the position where the platform was […]

PDIA3 [3] = molecular target: T2, PDIA3; experiment: CETSA and pull-down assay with probe SB1624; format: binding; design: endogenous in cells; host or cells: HEK293 BiFC-tau cells (TS-FITGE, CETSA, PEG-maleimide assay); SH-SY5Y cells (pull-down with probe SB1624); conditions: CETSA 10 μM in HEK293 BiFC-tau cells; pull-down 5 μM SB1624 with or without 40 μM SB1617 in SH-SY5Y cells
Protocol: HEK293 BiFC-tau cells were treated with DMSO (0.1%) and a compound according to the present invention (10 μM) in the presence of thapsigargin (200 nM) for 3 hours. The cell suspension was heated at the indicated temperature range for 3 minutes and then at 25° C. for 3 minutes. The heated cells were washed with PBS and resuspended in Lysis Buffer A. For cell lysis, cell suspensions were freeze-thawed in liquid nitrogen three times. The cell lysate was washed by centrifugation at 20000 g, 4° C. for 20 minutes. Equal volumes of washed cell lysate were combined with SDS buffer and subjected to immunoblotting.
SH-SY5Y cells were seeded in 6-well plates and then treated with 1 μM thapsigargin and 5 μM SB1624 (probe compound) for 2.5 hours with or without 40 μM SB1617. Cells were exposed to 356 nm UV irradiation for 30 min on ice. After washing with cold PBS, cells were lysed in RIPA buffer and removed by centrifugation at […] for 15 minutes at 4° C. The protein concentration of the supernatant was determined by Pierce BCA Protein Assay Kit and the protein concentration was adjusted to 1 mg/mL. […] Proteins were eluted by boiling with 3×SDS sample buffer and analyzed by SDS-PAGE and Western blot. […]

## CN(Cc1ccc(Cl)cc1)c1ncnc2c1[C@@H]1OC[C@H](CN2)N1S(=O)(=O)c1ccc([N+](=O)[O-])cc1 [Compound 117]
DNAJC3
  direct binding (SPR): binds directly
PDIA3 [1]
  direct binding (SPR): binds directly
[2]; acute Alzheimer's mouse model
  learning ability (Acquisition test), rank order: WT >Donepezil >SB-1617>Vehicle
[2]; compared to the vehicle
  probe test, number of times of entering the SW quadrant space: significantly higher value
  probe test, number of times passing the virtual platform: significantly higher value
  probe test, time to reach the platform: significantly lower value
[2]; mouse, in vivo
  probe test, percentage (%) of the time spent in the quadrant where the platform exists: remembered the location of the platform well
PDIA3 [3]
  specific binding (CETSA, pull-down): specifically binds
